From US20230233569A1 (Revolution Medicines, Inc., priority 2020, published 2023)

Legend:
[1] = test system: K-Ras G12C (NCI-H358 cells); experiment: Potency assay: pERK (AlphaLISA SureFire or In-Cell Western); assay type: cell-based; details: Homo sapiens, NCI-H358; H358 KRAS G12C; read-out: pERK EC50
Experimental: (§1) The purpose of this assay is to measure the ability of test compounds to inhibit K-Ras in cells. […] This procedure measures a decrease in cellular pERK in response to test compounds.
(§2) NCI-H358 cells were grown and maintained using media and procedures recommended by the ATCC. On the day prior to compound addition, cells were plated in 384-well cell culture plates (40 μl/well) and grown overnight in a 37° C., 5% CO2 incubator. Test compounds were prepared in 10, 3-fold dilutions in DMSO, with a high concentration of 10 mM. On the day of assay, 40 nL of test compound was added to each well of cell culture plate using an Echo550 liquid handler (LabCyte®). Concentrations of test compound were tested in duplicate. After compound addition, cells were incubated 4 hours at 37° C., 5% CO2. Following incubation, culture medium was removed and cells were washed once with phosphate buffered saline.
(§3) In some experiments, cellular pERK level was determined using the AlphaLISA SureFire Ultra p-ERK1/2 Assay Kit (PerkinElmer). Cells were lysed in 25 μL lysis buffer, with shaking at 600 RPM at room temperature. […] After a 2-hour incubation in the dark, 5 μL donor mix was added, plate was sealed, and incubated 2 hours at room temperature. Signal was read on an Envision plate reader (PerkinElmer) using standard AlphaLISA settings. Analysis of raw data was carried out in Excel (Microsoft) and Prism (GraphPad). Signal was plotted vs. the decadal logarithm of compound concentration, and IC50 was determined by fitting a 4-parameter sigmoidal concentration response model.
In other experiments, cellular pERK was determined by In-Cell Western. […] Fixed cells were washed 4 times for 5 minutes with TBS containing 0.1% Triton X-100 (TBST) and then blocked with 100 μL Odyssey blocking buffer (LI-COR) for 60 minutes at room temperature. […] Cells were washed 4 times for 5 minutes with TBST. Secondary antibody (IR-800CW rabbit, LI-COR, diluted 1:800) and DNA stain DRAQ5 (LI-COR, diluted 1:2000) were added and incubated 1-2 hours at room temperature. Cells were washed 4 times for 5 minutes with TBST. Plates were scanned on a LI-COR Odyssey CLx Imager. Analysis of raw data was carried out in Excel (Microsoft) and Prism (GraphPad). Signal was plotted vs. the decadal logarithm of compound concentration, and IC50 was determined by fitting a 4-parameter sigmoidal concentration response model.
as §1
as §2, with “mM. On day of” for “mM. On the day of”, “assay, 40 nl of test” for “assay, 40 nL of test”
as §3, with “μl” for “μL”, “sealed” for “sealed,”

NCI-H358 (K-Ras G12C) = experiment: CellTiter-Glo cell viability assay, 5-day treatment; assay type: cell-based; details: Homo sapiens, NCI-H358, H358, K-Ras G12C; read-out: Additional H358 Cell Viability assay data (K-Ras G12C, IC50)
Summary of the method: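 Seeded cells received test compound by direct dispensing. On day 5 the plates sat at room temperature approximately 30 minutes, then luminescence was measured. Data were normalized to DMSO and curve-fitted with four parameters.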

KRAS G12C = KRAS G12C (Homo sapiens, UniProt P01116+P62937, G12C); experiment: Disruption of BRAF RBD interaction with Ras (FRET / MOA assay, with Cyclophilin A); assay type: biochemical; details: KRAS G12C; read-out: KRAS G12C FRET data IC50
Sequence of KRAS G12C (P01116 1-169 isoform P01116-2 G12C): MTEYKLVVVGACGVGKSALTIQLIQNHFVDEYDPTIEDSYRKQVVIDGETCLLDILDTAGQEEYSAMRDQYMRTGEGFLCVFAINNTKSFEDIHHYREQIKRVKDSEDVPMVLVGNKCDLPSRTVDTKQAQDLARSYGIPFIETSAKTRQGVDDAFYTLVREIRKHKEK
Sequence of KRAS G12C (P62937 whole entry): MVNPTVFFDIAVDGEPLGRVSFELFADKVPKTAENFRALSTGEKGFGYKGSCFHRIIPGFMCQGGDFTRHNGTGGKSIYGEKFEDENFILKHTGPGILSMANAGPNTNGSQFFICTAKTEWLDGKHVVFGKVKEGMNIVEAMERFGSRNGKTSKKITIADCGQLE
Summary of the method: (§4)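 Measured via TR-FRET after 3 h at 25 °C with compound (30 μM top, threefold serial steps, ten concentrations) plus K-Ras, Cyclophilin A and BRAF RBD, followed by 1.5 h with anti-His europium (10 nM) and anti-GST allophycocyanin (50 nM). Signal loss versus DMSO gave IC50.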

KRAS G12D = KRAS G12D (Homo sapiens, UniProt P01116+P62937, G12D); experiment: as above; assay type: biochemical; details: read-out: KRAS G12D FRET data, IC50
Sequence of KRAS G12D (P01116 1-169 isoform P01116-2 G12D limits assumed): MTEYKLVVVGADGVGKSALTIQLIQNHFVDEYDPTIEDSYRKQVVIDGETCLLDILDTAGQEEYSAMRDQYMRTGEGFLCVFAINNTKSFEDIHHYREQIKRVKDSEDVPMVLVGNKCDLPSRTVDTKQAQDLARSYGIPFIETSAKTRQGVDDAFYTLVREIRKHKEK
Sequence of KRAS G12D (P62937 whole entry): as the sequence (P62937 whole entry) above
Summary of the method: as §4

KRAS G12S = KRAS G12S (Homo sapiens, UniProt P01116+P62937, G12S); experiment: as above; assay type: biochemical; details: read-out: KRAS G12S FRET data, IC50
Sequence of KRAS G12S (P01116 1-169 isoform P01116-2 G12S limits assumed): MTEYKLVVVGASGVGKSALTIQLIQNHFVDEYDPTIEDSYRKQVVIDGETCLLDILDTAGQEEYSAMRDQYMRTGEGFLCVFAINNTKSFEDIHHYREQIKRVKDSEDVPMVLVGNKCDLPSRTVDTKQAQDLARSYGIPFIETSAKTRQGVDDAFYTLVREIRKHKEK
Sequence of KRAS G12S (P62937 whole entry): as the sequence (P62937 whole entry) above
Summary of the method: as §4

KRAS G12V = KRAS G12V (Homo sapiens, UniProt P01116+P62937, G12V); experiment: as above; assay type: biochemical; details: KRAS G12V; read-out: KRAS G12V FRET data IC50
Sequence of KRAS G12V (P01116 1-169 isoform P01116-2 G12V limits assumed): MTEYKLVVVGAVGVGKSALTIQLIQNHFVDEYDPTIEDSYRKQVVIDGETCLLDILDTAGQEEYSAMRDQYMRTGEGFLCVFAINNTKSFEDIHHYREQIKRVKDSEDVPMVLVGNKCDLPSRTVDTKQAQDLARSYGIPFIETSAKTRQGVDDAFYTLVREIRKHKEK
Sequence of KRAS G12V (P62937 whole entry): as the sequence (P62937 whole entry) above
Summary of the method: as §4

KRAS G13C = KRAS G13C (Homo sapiens, UniProt P01116+P62937, G13C); experiment: as above; assay type: biochemical; details: KRAS G13C; read-out: KRAS G13C FRET data IC50
Sequence of KRAS G13C (P01116 1-169 isoform P01116-2 G13C): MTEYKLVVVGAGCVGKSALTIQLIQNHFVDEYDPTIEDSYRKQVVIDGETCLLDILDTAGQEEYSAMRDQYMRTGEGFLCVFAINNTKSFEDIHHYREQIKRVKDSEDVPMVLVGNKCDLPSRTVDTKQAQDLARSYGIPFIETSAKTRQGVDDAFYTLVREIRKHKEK
Sequence of KRAS G13C (P62937 whole entry): as the sequence (P62937 whole entry) above
Summary of the method: as §4

KRAS G13D = KRAS G13D (Homo sapiens, UniProt P01116+P62937, G13D); experiment: as above; assay type: biochemical; details: KRAS G13D; read-out: KRAS G13D FRET data IC50
Sequence of KRAS G13D (P01116 1-169 isoform P01116-2 G13D limits assumed): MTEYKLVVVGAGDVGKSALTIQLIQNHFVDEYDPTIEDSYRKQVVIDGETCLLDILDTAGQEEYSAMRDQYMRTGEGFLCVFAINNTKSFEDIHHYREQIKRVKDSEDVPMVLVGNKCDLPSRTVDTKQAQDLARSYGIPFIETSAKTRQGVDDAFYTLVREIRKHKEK
Sequence of KRAS G13D (P62937 whole entry): as the sequence (P62937 whole entry) above
Summary of the method: as §4

KRAS WT = KRAS WT (Homo sapiens, UniProt P01116+P62937); experiment: as above; assay type: biochemical; details: KRAS WT; read-out: KRAS WT FRET data IC50
Sequence of KRAS WT (P01116 1-169 isoform P01116-2 limits assumed): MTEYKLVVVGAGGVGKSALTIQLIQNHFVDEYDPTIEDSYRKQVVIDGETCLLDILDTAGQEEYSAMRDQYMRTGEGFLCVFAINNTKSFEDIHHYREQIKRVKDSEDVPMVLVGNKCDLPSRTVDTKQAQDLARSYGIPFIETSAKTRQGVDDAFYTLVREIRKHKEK
Sequence of KRAS WT (P62937 whole entry): as the sequence (P62937 whole entry) above
Summary of the method: as §4

NRAS G12C = NRAS G12C (Homo sapiens, UniProt P01111+P62937, G12C); experiment: as above; assay type: biochemical; details: NRAS G12C; read-out: NRAS G12C FRET data IC50
Sequence of NRAS G12C (P01111 whole entry G12C): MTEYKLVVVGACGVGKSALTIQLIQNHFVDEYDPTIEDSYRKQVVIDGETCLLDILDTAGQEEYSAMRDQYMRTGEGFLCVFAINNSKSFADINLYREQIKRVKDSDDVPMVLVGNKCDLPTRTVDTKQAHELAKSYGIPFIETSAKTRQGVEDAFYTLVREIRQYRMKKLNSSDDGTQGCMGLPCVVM
Sequence of NRAS G12C (P62937 whole entry): as the sequence (P62937 whole entry) above

NRAS Q61K = NRAS Q61K (Homo sapiens, UniProt P01111+P62937, Q61K); experiment: as above; assay type: biochemical; details: NRAS Q61K; read-out: NRAS Q61K FRET data IC50
Sequence of NRAS Q61K (P01111 whole entry Q61K): as the sequence (P01111 whole entry G12C) above, with C12G, Q61K counted along it
Sequence of NRAS Q61K (P62937 whole entry): as the sequence (P62937 whole entry) above
Summary of the method: (§5)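 IC50 reflects compound-driven Ras:Cyclophilin A ternary complex displacing BRAF RBD, read as lowered TR-FRET ratio relative to DMSO after Eu anti-His (10 nM) and APC anti-GST (50 nM) detection for 1.5 h. Prior incubation 3 h, 25° C, with 12.5 nM GMPPNP-loaded Ras, 50 nM BRAF RBD, 25 μM Cyclophilin A; top compound 30 μM.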

NRAS Q61R = NRAS Q61R (Homo sapiens, UniProt P01111+P62937, Q61R); experiment: as above; assay type: biochemical; details: NRAS Q61R; read-out: NRAS Q61R FRET data IC50
Sequence of NRAS Q61R (P01111 whole entry Q61R): as the sequence (P01111 whole entry G12C) above, with C12G, Q61R counted along it
Sequence of NRAS Q61R (P62937 whole entry): as the sequence (P62937 whole entry) above
Summary of the method: as §5

Row | Compound | EC50 [1] | IC50 (NCI-H358 (K-Ras G12C)) | IC50 (KRAS G12C) | IC50 (KRAS G12D) | IC50 (KRAS G12S) | IC50 (KRAS G12V) | IC50 (KRAS G13C) | IC50 (KRAS G13D) | IC50 (KRAS WT) | IC50 (NRAS G12C) | IC50 (NRAS Q61K) | IC50 (NRAS Q61R)
1 | C=CC(=O)N(C)CCN(C)C(=O)N(C)[C@H](C(=O)N[C@H]1Cc2nc(cs2)-c2ccc3c(c2)c(c(-c2cccnc2[C@H](C)OCC)n3CC)CC(C)(C)COC(=O)[C@@H]2CCCN(N2)C1=O)C(C)C [Example A437] | < 5 µM | 0.01 to 0.1 µM | 0.01 to 0.1 µM | 1 to 10 µM | 0.1 to 1 µM | 0.1 to 1 µM | 0.1 to 1 µM | 1 to 10 µM | 0.1 to 1 µM | 0.01 to 0.1 µM |  | 
2 | CCn1c(-c2cccnc2[C@H](C)OC)c2c3cc(ccc31)-c1cccc(c1)C[C@H](NC(=O)[C@H](C(C)C)N(C)C(=O)[C@@H]1CCN(C(=O)C#CC(C)(C)N3CCC3)C1)C(=O)N1CCC[C@H](N1)C(=O)OCC(C)(C)C2 [Example A476] | < 5 µM | < 0.01 µM | 0.01 to 0.1 µM | 1 to 10 µM | 1 to 10 µM | 1 to 10 µM | 0.1 to 1 µM | 1 to 10 µM | 1 to 10 µM | 0.01 to 0.1 µM |  | 
3 | CCn1c(-c2cccnc2[C@H](C)OC)c2c3cc(ccc31)-c1cccc(c1)C[C@H](NC(=O)[C@H](C(C)C)N(C)C(=O)[C@H]1CCN(C(=O)C#CC3CC(F)(F)CN3C)C1)C(=O)N1CCC[C@H](N1)C(=O)OCC(C)(C)C2 (some centres unmarked) [Example A526] | < 5 µM | < 0.01 µM | 0.01 to 0.1 µM | > 10 µM | 1 to 10 µM | 1 to 10 µM | 1 to 10 µM | > 10 µM | 1 to 10 µM | 0.01 to 0.1 µM |  | 
4 | CCn1c(-c2cccnc2[C@H](C)OC)c2c3cc(ccc31)-c1cccc(c1)C[C@H](NC(=O)[C@@H](COC1CN(C(=O)C#CC(C)(C)N(C)C(C)C)C1)C(C)C)C(=O)N1CCCC(N1)C(=O)OCC(C)(C)C2 (some centres unmarked) [Example A599] | < 5 µM | < 0.01 µM |  |  |  |  |  |  |  | 0.01 to 0.1 µM | > 10 µM | > 10 µM
5 | C=CC(=O)Nc1cnc(OC[C@H](C(=O)N[C@H]2Cc3cccc(c3)-c3ccc4c(c3)c(c(-c3cccnc3[C@H](C)OC)n4CC)CC(C)(C)COC(=O)C3CCCN(N3)C2=O)C(C)C)n1C (some centres unmarked) [Example A600] | < 5 µM | < 0.01 µM |  |  |  |  |  |  |  | < 0.01 µM | 1 to 10 µM | 1 to 10 µM
6 | C=CC(=O)N1CC2(C1)OCCN2C(=O)N(C)[C@H](C(=O)N[C@H]1Cc2nc(cs2)-c2ccc3c(c2)c(c(-c2cccnc2[C@H](C)OC)n3CC)CC(C)(C)COC(=O)C2CCCN(N2)C1=O)C(C)C (some centres unmarked) [Example A620] | < 5 µM | < 0.01 µM |  |  |  |  |  |  |  | < 0.01 µM | 0.01 to 0.1 µM | 0.1 to 1 µM
7 | C=CC(=O)N(C)CCC1CCN(C(=O)N(C)[C@H](C(=O)N[C@H]2Cc3nc(cs3)-c3ccc4c(c3)c(c(-c3cccnc3[C@H](C)OC)n4CC)CC(C)(C)COC(=O)C3CCCN(N3)C2=O)C(C)C)CC1 (some centres unmarked) [Example A621] | < 5 µM | < 0.01 µM |  |  |  |  |  |  |  | 0.01 to 0.1 µM | 0.01 to 0.1 µM | 0.01 to 0.1 µM

The next lines start with the values.

Row | EC50 [1] | IC50 (NCI-H358 (K-Ras G12C)) | IC50 (KRAS G12C) | IC50 (KRAS G12D) | IC50 (KRAS G12S) | IC50 (KRAS G12V) | IC50 (KRAS G13C) | IC50 (KRAS G13D) | IC50 (KRAS WT) | IC50 (NRAS G12C) | IC50 (NRAS Q61K) | IC50 (NRAS Q61R) | Compound
8 | < 5 µM | < 0.01 µM |  |  |  |  |  |  |  | 0.01 to 0.1 µM | 0.01 to 0.1 µM | 0.01 to 0.1 µM | C=CC(=O)N1CCO[C@@H]2CCN(C(=O)N(C)[C@H](C(=O)N[C@H]3Cc4nc(cs4)-c4ccc5c(c4)c(c(-c4cccnc4[C@H](C)OC)n5CC)CC(C)(C)COC(=O)C4CCCN(N4)C3=O)C(C)C)CC21 (some centres unmarked) [Example A596]
9 | < 5 µM | < 0.01 µM |  |  |  |  |  |  |  | 0.01 to 0.1 µM | 0.1 to 1 µM | 0.1 to 1 µM | C=CC(=O)N1CCO[C@H]2CN(C(=O)N(C)[C@H](C(=O)N[C@H]3Cc4cccc(n4)-c4ccc5c(c4)c(c(-c4cccnc4[C@H](C)OC)n5CC)CC(C)(C)COC(=O)C4CCCN(N4)C3=O)C(C)C)C[C@H]21 (some centres unmarked) [Example A597]
10 | < 5 µM | < 0.01 µM |  |  |  |  |  |  |  | 0.01 to 0.1 µM | 0.01 to 0.1 µM | 0.01 to 0.1 µM | CO[C@@H](C)c1ncccc1-c1c2c3cc(ccc3n1CC(F)(F)F)-c1csc(n1)C[C@H](NC(=O)[C@H](C(C)C)N(C)C(=O)N1CCC3(CC1)CN(C(=O)/C=C/CF)C3)C(=O)N1CCCC(N1)C(=O)OCC(C)(C)C2 (some centres unmarked) [Example A602]
11 | < 5 µM | 0.01 to 0.1 µM |  |  |  |  |  |  |  | 0.01 to 0.1 µM | > 10 µM | > 10 µM | CCn1c(-c2cccnc2[C@H](C)OC)c2c3cc(ccc31)N1CCC[C@@H](C[C@H](NC(=O)[C@H](C(C)C)N(C)C(=O)C3CCN(C(=O)C#CC(C)(C)N4CCC4)C3)C(=O)N3CCCC(N3)C(=O)OCC(C)(C)C2)C1 (some centres unmarked) [Example A617]
12 | < 5 µM | 0.01 to 0.1 µM |  |  |  |  |  |  |  | 0.1 to 1 µM | 0.1 to 1 µM | 0.1 to 1 µM | C=CC(=O)N1CCC[C@H]2CN(C(=O)N(C)[C@H](C(=O)N[C@H]3Cc4nc(cs4)-c4ccc5c(c4)c(c(-c4cccnc4[C@H](C)OC)n5CC)CC(C)(C)COC(=O)C4CCCN(N4)C3=O)C(C)C)C[C@H]21 (some centres unmarked) [Example A618]
13 | < 5 µM | 0.01 to 0.1 µM |  |  |  |  |  |  |  | 0.1 to 1 µM | 0.1 to 1 µM | 0.1 to 1 µM | C=CC(=O)N1CCC[C@@H]2CN(C(=O)N(C)[C@H](C(=O)N[C@H]3Cc4nc(cs4)-c4ccc5c(c4)c(c(-c4cccnc4[C@H](C)OC)n5CC)CC(C)(C)COC(=O)C4CCCN(N4)C3=O)C(C)C)C[C@@H]21 (some centres unmarked) [Example A619]
